ChEMBL document CHEMBL1201862, “PubChem BioAssay data set” (2004)
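96-well plates; 48 h exposure; 5 concentrations. Endpoints by linear interpolation between flanking doses. Not reached: highest tested concentration assigned. GI50: concentration for 50% inhibition of growth.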 Activity calls are given as the source filed them. Cut-off read from the data, not from the text of the source: active = GI50 up to about 1.1 µM and inactive = higher.

Tests used:
Assay in all cases: NCI-60 cell line screen, 48 h
UACC-62 = tested on: UACC-62
SR = tested on: SR
OVCAR-3 = tested on: OVCAR-3
MDA-MB-435 = tested on: MDA-MB-435
SF-539 = tested on: SF-539
MCF7 = tested on: MCF7
SK-MEL-2 = tested on: SK-MEL-2
K562 = tested on: K562
A549 = tested on: A549
EKVX = tested on: EKVX
RPMI-8226 = tested on: RPMI-8226
SW-620 = tested on: SW-620
HCC 2998 = tested on: HCC 2998
OVCAR-4 = tested on: OVCAR-4
HCT-15 = tested on: HCT-15
RXF 393 = tested on: RXF 393
TK-10 = tested on: TK-10
NCI-H226 = tested on: NCI-H226
U-251 = tested on: U-251
SK-MEL-28 = tested on: SK-MEL-28
OVCAR-5 = tested on: OVCAR-5
UACC-257 = tested on: UACC-257
SK-OV-3 = tested on: SK-OV-3
UO-31 = tested on: UO-31
HL-60 = tested on: HL-60
NCI-H460 = tested on: NCI-H460
SNB-19 = tested on: SNB-19
BT-549 = tested on: BT-549
M14 = tested on: M14
IGROV-1 = tested on: IGROV-1
SK-MEL-5 = tested on: SK-MEL-5
NCI-H23 = tested on: NCI-H23
HOP-92 = tested on: HOP-92
MOLT-4 = tested on: MOLT-4
PC-3 = tested on: PC-3
HT-29 = tested on: HT-29
SN12C = tested on: SN12C
ACHN = tested on: ACHN
SNB-75 = tested on: SNB-75
COLO 205 = tested on: COLO 205
SF-268 = tested on: SF-268
HOP-62 = tested on: HOP-62
NCI-H522 = tested on: NCI-H522
LOX IMVI = tested on: LOX IMVI
SF-295 = tested on: SF-295
MDA-N = tested on: MDA-N
MDA-MB-231 = tested on: MDA-MB-231
Hs-578T = tested on: Hs-578T
T47D = tested on: T47D
Malme-3M = tested on: Malme-3M
DU-145 = tested on: DU-145
HCT-116 = tested on: HCT-116
KM12 = tested on: KM12
A498 = tested on: A498
786-0 = tested on: 786-0
CAKI-1 = tested on: CAKI-1
NCI/ADR-RES = tested on: NCI/ADR-RES
CCRF-CEM = tested on: CCRF-CEM

In the case of CSc1n[nH]c2c1c(C)nn2-c1ccccc1, the GI50 (UACC-62) is reported as > 100 µM (inactive), the GI50 (SR) is reported as > 100 µM (inactive) and the GI50 (OVCAR-3) is reported as > 100 µM (inactive). For the same molecule, the GI50 (MDA-MB-435) was > 100 µM (inactive), the GI50 (SF-539) was > 100 µM (inactive) and the GI50 (MCF7) was > 100 µM (inactive). The GI50 (SK-MEL-2) was > 100 µM (inactive), the GI50 (K562) was > 100 µM (inactive) and the GI50 (A549) was > 100 µM (inactive). For the same molecule, the GI50 (EKVX) was > 100 µM (inactive), the GI50 (RPMI-8226) was > 100 µM (inactive) and the GI50 (SW-620) was > 100 µM (inactive). For the same molecule, the GI50 (HCC 2998) was > 100 µM (inactive), the GI50 (OVCAR-4) was > 100 µM (inactive) and the GI50 (HCT-15) was greater than 100 µM. For the same molecule, the GI50 (RXF 393) was > 100 µM (inactive), the GI50 (TK-10) was > 100 µM (inactive) and the GI50 (NCI-H226) was > 100 µM (inactive). The GI50 (U-251) was > 100 µM (inactive), the GI50 (SK-MEL-28) was > 100 µM (inactive) and the GI50 (OVCAR-5) was > 100 µM (inactive). The GI50 (UACC-257) was > 100 µM (inactive), the GI50 (SK-OV-3) was > 100 µM (inactive) and the GI50 (UO-31) was > 100 µM (inactive). For the same molecule, the GI50 (HL-60) was 71.3 µM (inactive), the GI50 (NCI-H460) was > 100 µM (inactive) and the GI50 (SNB-19) was > 100 µM (inactive). The GI50 (BT-549) was > 100 µM (inactive), the GI50 (M14) was > 100 µM (inactive) and the GI50 (IGROV-1) was > 100 µM (inactive). For the same molecule, the GI50 (SK-MEL-5) was > 100 µM (inactive), the GI50 (NCI-H23) was > 100 µM (inactive) and the GI50 (HOP-92) was > 100 µM (inactive). The GI50 (MOLT-4) was > 100 µM (inactive), the GI50 (PC-3) was > 100 µM (inactive) and the GI50 (HT-29) was > 100 µM (inactive).

In the case of N#Cc1nc(CCC(c2nc(C#N)c(N)o2)N2C(=O)c3ccccc3C2=O)oc1N (stereo not drawn), the GI50 (UACC-62) is reported as > 100 µM (inactive), the GI50 (SN12C) is reported as > 100 µM (inactive) and the GI50 (SR) is reported as < 0.01 µM (active). For the same molecule, the GI50 (OVCAR-3) was > 100 µM (inactive), the GI50 (ACHN) was > 100 µM (inactive) and the GI50 (MDA-MB-435) was > 100 µM (inactive). For the same molecule, the GI50 (SF-539) was > 100 µM (inactive), the GI50 (MCF7) was > 100 µM (inactive) and the GI50 (SK-MEL-2) was > 100 µM (inactive). For the same molecule, the GI50 (K562) was 32.8 µM (inactive), the GI50 (SNB-75) was > 100 µM (inactive) and the GI50 (COLO 205) was > 100 µM (inactive). The GI50 (SF-268) was > 100 µM (inactive), the GI50 (HOP-62) was > 100 µM (inactive) and the GI50 (NCI-H522) was > 100 µM (inactive). For the same molecule, the GI50 (A549) was > 100 µM (inactive), the GI50 (EKVX) was > 100 µM (inactive) and the GI50 (LOX IMVI) was > 100 µM (inactive). The GI50 (RPMI-8226) was > 100 µM (inactive), the GI50 (SW-620) was > 100 µM (inactive) and the GI50 (SF-295) was > 100 µM (inactive). For the same molecule, the GI50 (HCC 2998) was > 100 µM (inactive), the GI50 (MDA-N) was > 100 µM (inactive) and the GI50 (OVCAR-4) was 67.6 µM (inactive). For the same molecule, the GI50 (HCT-15) was greater than 100 µM, the GI50 (RXF 393) was > 100 µM (inactive) and the GI50 (MDA-MB-231) was > 100 µM (inactive). The GI50 (TK-10) was > 100 µM (inactive), the GI50 (NCI-H226) was > 100 µM (inactive) and the GI50 (U-251) was > 100 µM (inactive). For the same molecule, the GI50 (SK-MEL-28) was > 100 µM (inactive), the GI50 (Hs-578T) was > 100 µM (inactive) and the GI50 (OVCAR-5) was > 100 µM (inactive). For the same molecule, the GI50 (UACC-257) was > 100 µM (inactive), the GI50 (SK-OV-3) was > 100 µM (inactive) and the GI50 (T47D) was > 100 µM (inactive). The GI50 (UO-31) was > 100 µM (inactive), the GI50 (Malme-3M) was > 100 µM (inactive) and the GI50 (DU-145) was > 100 µM (inactive). For the same molecule, the GI50 (HCT-116) was > 100 µM (inactive), the GI50 (KM12) was > 100 µM (inactive) and the GI50 (HL-60) was > 100 µM (inactive). The GI50 (A498) was > 100 µM (inactive), the GI50 (NCI-H460) was > 100 µM (inactive) and the GI50 (786-0) was > 100 µM (inactive). For the same molecule, the GI50 (SNB-19) was > 100 µM (inactive), the GI50 (M14) was > 100 µM (inactive) and the GI50 (CAKI-1) was > 100 µM (inactive). The GI50 (IGROV-1) was > 100 µM (inactive), the GI50 (SK-MEL-5) was > 100 µM (inactive) and the GI50 (NCI-H23) was > 100 µM (inactive). For the same molecule, the GI50 (HOP-92) was > 100 µM (inactive), the GI50 (MOLT-4) was 27.8 µM (inactive) and the GI50 (PC-3) was > 100 µM (inactive). For the same molecule, the GI50 (HT-29) was > 100 µM (inactive), the GI50 (NCI/ADR-RES) was > 100 µM (inactive) and the GI50 (CCRF-CEM) was > 10 µM (inactive).
